Test results reported in patent publication US20260294885A1, “TREATMENT OF INFLAMMATORY CONDITIONS COMPRISING IMU-856” (IMMUNIC AG, priority 2023, published 2026).
“Also recorded” adds a separate entry of the source.

Tests used:
[1] = system: patients with celiac disease; experiment: Nutrient absorption (vitamin B12, zinc, ferritin), Part C; format: in vivo, human; conditions: for increase in vitamin B12 levels: over the course of the trial; for mean increase in vitamin B12 levels / mean increase in zinc levels: baseline to Day 29
Method: In Part A, healthy subjects were randomised to single ascending doses of IMU-856 (10 mg to 160 mg) or placebo. In Part B healthy subjects were randomised to multiple once-daily doses of IMU-856 (40, 80, and 160 mg) or placebo for 14 days. Part C randomised patients with celiac disease who were on a gluten-free diet to multiple once-daily doses of IMU-856 (80 mg and 160 mg) or placebo for 28 days; a once-daily gluten challenge (6 g) was introduced on Day 14 and ended on Day 28. 71 healthy subjects were enrolled in Part A and B (N=19 placebo and N=52 IMU-856) and 43 patients with CelD in Part C (N=14 placebo; N=14 for 80 mg, and N=15 for 160 mg). In Parts A and B, treatment-emergent adverse events (TEAEs) occurred in 24 (73%) and 15 (79%) of subjects receiving any dose of IMU-856 compared to 6 (50%) and 5 (71%) with placebo, respectively. […] In Part C, the most common adverse events with any dose of IMU-856 by preferred term were headache (13 [45%]), nausea (9 [31%]), diarrhoea (8 [28%]), and abdominal distension (7 [24%]). […] In Part C, the mean change in villous height from baseline to Day 29 with 80 mg and 160 mg was −20.9±34.8 μm, and −22.5±51.1 μm, respectively, and −60.3±52.2 μm with placebo. […] Mean change in plasma citrulline increased with 80 mg and 160 mg from baseline to Day 14 (2.4±6.2 and 6.1±5.9 μmol/L, respectively) and from baseline to Day 29 (2.8±7.6 and 2.2±5.3 μmol/L, respectively), but not with placebo (−2.7±5.6 and −4.0±6.5 μmol/L). […] Mean increase in zinc levels from baseline to Day 29 with 80 mg and 160 mg were 0.3±1.4 and 0.9±2.1 μmol/L compared to a mean decrease in placebo (−0.9±2.1 μmol/L). Gluten-induced symptoms were also attenuated by IMU-856. […]

[2] = system: patients with celiac disease; experiment: Patient-reported symptoms with gluten challenge (Celiac Disease Symptom Diary), Part C; format: in vivo, human; set-up: key to mean change in bloating / mean change in tiredness: change on 5-point severity scale (1=none to 5=very severe); conditions: for mean change in abdominal pain (SD) / mean change in diarrhea (SD) / mean change in nausea (SD): last day before to first day of gluten challenge, CDSD 5-point scale
From the text: In an embodiment, the celiac disease patient is experiencing one or more symptoms as assessed by the CDSD Version 2.1® (ImmunogenX LLC) at the start of treatment with IMU-856 or a pharmaceutically acceptable salt or a solvate thereof. The CDSD questionnaire was developed to assess symptom severity in clinical trials in subjects with celiac disease. The CDSD includes five symptoms (diarrhea, abdominal pain, bloating, nausea, tiredness) asking participants about the severity of celiac disease symptoms they experience each day. Subjects rate their symptom severity on a 5-point scale (1=none, 2=mild, 3=moderate, 4=severe, 5=very severe). In various embodiments, the celiac disease patient is experiencing one or more significant or severe symptomatic days (based on CDSD) at the start of treatment with IMU-856 or a pharmaceutically acceptable salt or a solvate thereof.
Improvement in clinical symptoms of gluten exposure: On the first day of gluten challenge, the placebo group (N=12) experienced a marked average increase in symptoms, as assessed by the Celiac Disease Symptom Diary using a 5-point scale of 0.8 for nausea, 0.8 for abdominal pain, and 0.8 diarrhea. In contrast, among the pooled IMU-856 arms (N=26), these average increases were only 0.4 for nausea, 0.5 for abdominal pain and 0.6 for diarrhea.

[3] = 160 mg (N 11), Day 14 to Day 29
[4] = 160 mg (N 13), Day 13 to Day 14
[5] = All Active (N 20), Day 14 to Day 29
[6] = All Active (N 26), Day 13 to Day 14
[7] = continued treatment during gluten challenge

Cn1c(COc2cc(C(F)(F)F)ccn2)nnc1[C@H]1CC[C@H](c2cnn([C@H]3CC[C@H](N4CC5(CCO5)C4)CC3)c2)CC1 [IMU-856, 6-(trans-4-(4-(trans-4-(4-methyl-5-(((4-(trifluoromethyl)pyridin-2-yl)oxy)methyl)-4H-1,2,4-triazol-3-yl)cyclohexyl)-1H-pyrazol-1-yl)cyclohexyl)-1-oxa-6-azaspiro[3.3]heptane]
increase in vitamin B12 levels ([1]; 80 mg (N=11)): 45.8 pmol/L
mean increase in vitamin B12 levels ([1]; 80 mg): 45.8 ± 94.4 pmol/L
mean increase in zinc levels ([1]; 80 mg): 0.3 ± 1.4 µmol/L
increase in vitamin B12 levels ([1]; 160 mg (N=13)): 74.2 pmol/L
mean increase in vitamin B12 levels ([1]; 160 mg): 74.2 ± 99.9 pmol/L
mean increase in zinc levels ([1]; 160 mg): 0.9 ± 2.1 µmol/L
gluten-induced iron malabsorption (ferritin levels) ([1]; Baseline to Day 29): ameliorates the gluten-induced iron malabsorption; also recorded: decreased to a lesser extent
nutrient absorption (vitamin B12) ([1]; in words): enhances nutrient absorption in a dose-dependent manner
nutrient absorption (zinc) ([1]; in words): enhances nutrient absorption in a dose-dependent manner; also recorded: A similar responses to treatment was observed for zinc
mean change in bloating ([2]; 80 mg (N 9), Day 14 to Day 29): −0.4
mean change in tiredness ([2]; 80 mg (N 9), Day 14 to Day 29): −0.1
mean change in bloating ([2]; 80 mg (N 13), Day 13 to Day 14): 0.3
mean change in tiredness ([2]; 80 mg (N 13), Day 13 to Day 14): 0.2
mean change in abdominal pain (SD) ([2]; 80 mg (N = 13)): 0.5 (0.78)
mean change in diarrhea (SD) ([2]; 80 mg (N = 13)): 0.5 (0.97)
mean change in nausea (SD) ([2]; 80 mg (N = 13)): 0.2 (0.69)
mean change in bloating [2, 3]: −0.5
mean change in tiredness [2, 3]: −0.5
mean change in bloating [2, 4]: 0.5
mean change in tiredness [2, 4]: 0.5
mean change in abdominal pain (SD) ([2]; 160 mg (N = 13)): 0.4 (0.87)
mean change in diarrhea (SD) ([2]; 160 mg (N = 13)): 0.6 (1.12)
mean change in nausea (SD) ([2]; 160 mg (N = 13)): 0.7 (1.03)
mean change in bloating [2, 5]: −0.5
mean change in tiredness [2, 5]: −0.3
mean change in bloating [2, 6]: 0.4
mean change in tiredness [2, 6]: 0.3
gluten-induced symptoms ([2]; Part C): attenuated
symptoms (nausea, abdominal pain or diarrhea) ([2]; after first day of gluten challenge (Day 14), versus placebo): fewer symptoms
patient-reported ability to perform daily activities [2, 7]: improvement
recovery from bloating symptoms [2, 7]: recover to a higher extent; also recorded: improvement
recovery from tiredness symptoms [2, 7]: recover to a higher extent; also recorded: improvement
protection against acute gluten-induced symptoms ([2]; first day of gluten challenge): initial signal of protection against acute gluten-induced symptoms
protection against chronic gluten-induced symptoms ([2]; human, in vivo): initial signal of protection against chronic gluten-induced symptoms
